Here are results for six molecules from PMC4648258 (ACS infectious diseases, 2015).

Structures are written as SMILES. Values after ≈ are worked out from the molar mass of the structure shown. Where only a bound is given, the exact number is not on record here.

Experiment [1] has as its system M. tuberculosis rRMP (ATCC 35838). The experiment in a line: microbe, parasite or virus in culture. It is filed as cell-based, Mycobacterium tuberculosis.
For experiment [2], the system named is M. tuberculosis rINH (ATCC 35822). The experiment is described as follows: microbe, parasite or virus in culture. Type of experiment: cell-based, Mycobacterium tuberculosis.
For experiment [3], the system named is M. tuberculosis rSM (ATCC 35820). The experiment is described as follows: microbe, parasite or virus in culture. It is filed as cell-based, Mycobacterium tuberculosis.
In experiment [4] the test system is M. tuberculosis rCS (cycloserine; ATCC35826). The experiment in a line: microbe, parasite or virus in culture. It is filed as cell-based. Conditions: Mycobacterium tuberculosis.
Experiment [5] has as its system M. tuberculosis rKM (ATCC 35827). The experiment is described as follows: microbe, parasite or virus in culture. It is filed as cell-based, Mycobacterium tuberculosis.
Experiment [6] has as its system M. tuberculosis thyA overexpression mutant. It is filed as cell-based.
The test system of experiment [7] is M. tuberculosis thyX overexpression mutant. It is filed as cell-based.
Where [8] appears, read: Mycobacterium tuberculosis, ATCC35838.
[9] abbreviates: Mycobacterium tuberculosis, ATCC35822.
The mark [10] stands for this setting: Mycobacterium tuberculosis, ATCC35820.
The mark [11] stands for this setting: Mycobacterium tuberculosis, ATCC35827.

With `CO[C@H]1/C=C/O[C@@]2(C)Oc3c(C)c(O)c4c(O)c(c(/C=N/N5CCN(C)CC5)c(O)c4c3C2=O)NC(=O)/C(C)=C\C=C\[C@H](C)[C@H](O)[C@@H](C)[C@@H](O)[C@@H](C)[C@H](OC(C)=O)[C@@H]1C` [RMP, rifampicin], the MIC in experiment [1] (setting [8]) is > 2 µg/mL; in experiment [2] (setting [9]) it was 0.01 µg/mL (≈ 0.0122 µM); in experiment [3] (setting [10]), 0.03 µg/mL (≈ 0.0365 µM); in experiment [4], < 0.01 µg/mL; in experiment [5] (setting [11]), < 0.01 µg/mL.

`NC[C@H]1O[C@H](O[C@H]2[C@H](O)[C@@H](O[C@H]3O[C@H](CO)[C@@H](O)[C@H](N)[C@H]3O)[C@H](N)C[C@@H]2N)[C@H](O)[C@@H](O)[C@@H]1O` [KM, kanamycin]: the MIC is 0.95 µg/mL (≈ 1.96 µM) in experiment [2] (MABA, rINH strain); 0.95 µg/mL (≈ 1.96 µM) in experiment [3] (MABA, rSM strain); >2.00 µg/mL in experiment [5] (MABA, rKM strain).

Regarding `[H]/N=C(/N)N[C@H]1[C@H](O)[C@@H](O)[C@H](O[C@@H]2O[C@@H](C)[C@](O)(C=O)[C@H]2O[C@@H]2O[C@@H](CO)[C@H](O)[C@@H](O)[C@@H]2NC)[C@@H](N/C(N)=N\[H])[C@@H]1O` [SM, streptomycin], the MIC is 0.46 µg/mL (≈ 0.791 µM) in experiment [2] (setting [9]), > 2 µg/mL in experiment [3] (setting [10]) and 1.2 µg/mL (≈ 2.06 µM) in experiment [5] (setting [11]).

For `NNC(=O)c1ccncc1` [INH, isoniazid], the MIC in experiment [1] (setting [8]) was 0.02 µg/mL (≈ 0.146 µM); in experiment [2] (setting [9]), > 2 µg/mL; in experiment [3] (setting [10]), 0.02 µg/mL (≈ 0.146 µM); in experiment [4] it was 0.01 µg/mL (≈ 0.0729 µM); in experiment [5] (setting [11]), 0.03 µg/mL (≈ 0.219 µM).

With `O=[N+]([O-])c1cn2c(n1)OC[C@@H](OCc1ccc(OC(F)(F)F)cc1)C2` [PA824], the MIC was determined as 0.03 µg/mL (≈ 0.0835 µM) in experiment [1] (setting [8]), 0.03 µg/mL (≈ 0.0835 µM) in experiment [2] (setting [9]), 0.11 µg/mL (≈ 0.306 µM) in experiment [3] (setting [10]) and 0.19 µg/mL (≈ 0.529 µM) in experiment [5] (setting [11]).

`CCCc1c2c([nH]c(=O)c1C)C(=O)c1[nH]c(=O)c(C)c(CCC)c1C2=O` [Compound 3, diazaquinomycin A]: the MIC in experiment [1] (MABA, rRMP strain) is 0.27 µg/mL (≈ 0.762 µM); in experiment [2] (MABA, rINH strain), 0.13 µg/mL (≈ 0.367 µM); in experiment [3] (MABA, rSM strain) it was 0.17 µg/mL (≈ 0.48 µM); in experiment [5] (MABA, rKM strain) it was 0.06 µg/mL (≈ 0.169 µM). Also, the “MIC differential versus H37Rv wild-type” value in experiment [6] and in experiment [7] was “did not observe a significant differential in the MIC” each time.
